# In patent US12570671B2 (BRISTOL-MYERS SQUIBB COMPANY, priority 2020, dated 2026):
# Experiments:
# Helios = Helios (Homo sapiens, UniProt Q96SW2+Q9UKS7); assay: Helios Cellular Degradation Assay (Helios readout); assay type: cell-based; set-up: endogenous in cells; host or cells: Jurkat; conditions: Jurkat cells, 72 h incubation, Helios-PE antibody staining, flow cytometry; read-out: Helios Jurkat IC50
# Procedure: (§1) Jurkat cells were plated at 80,000 cells/well in 40 μL RPMI+10% FBS in a 384 well cell culture plate prior to using acoustic dispensing technology for adding compound of interest. Cell cultures were incubated for 72 h at 37° C. and 5% C02. In order to facilitate analysis, cell cultures were spun down at 200 rpm for 5 min and the supernatant was discarded. After shaking the plate to dislodge the cell pellet, cells were resuspended in 50 μL of Fixation Buffer (eBioScience FoxP3 buffer set 00-5523-00) for 60 min at room temperature. After centrifuging and discarding the supernatant, cells were permeabilized with 50 μL of Permeabilization buffer (eBioScience FoxP3 buffer set 00-5523-00) for 10 min at room temperature. Following permeabilization, cells were spun down and the supernatant was replaced with 20 μL fluorescently labelled antibodies against Helios, Ikaros and Aiolos or corresponding Isotype controls in 1× Permeabilization buffer (Ikaros-Alexa488 [Biolegend, Cat #368408, 1:50], Helios-PE [CST, Cat #29360, 1:50], Aiolos-Alexa647 [Biolegend, Cat #371106Biolegend, 1:25]) and staining reactions were incubated for 1 h at room temperature; protected from light. Subsequently, 30 μL of 1× Permeabilization buffer was added prior to centrifuging the cells and discarding the supernatant. Stained cells were resuspended in 25 μL of flow cytometry staining buffer (PBS+0.2% BSA) and analyzed using an Intellicyt Ique Plus flow cytometer.
# Ikaros = Ikaros (Homo sapiens, UniProt Q13422+Q96SW2); assay: Helios Cellular Degradation Assay (Ikaros readout); assay type: cell-based; set-up: endogenous in cells; host or cells: Jurkat; conditions: Jurkat cells, 72 h incubation, Ikaros-Alexa488 antibody staining, flow cytometry; read-out: Ikaros Jurkat IC50
# Sequence of Ikaros (Q13422 whole entry): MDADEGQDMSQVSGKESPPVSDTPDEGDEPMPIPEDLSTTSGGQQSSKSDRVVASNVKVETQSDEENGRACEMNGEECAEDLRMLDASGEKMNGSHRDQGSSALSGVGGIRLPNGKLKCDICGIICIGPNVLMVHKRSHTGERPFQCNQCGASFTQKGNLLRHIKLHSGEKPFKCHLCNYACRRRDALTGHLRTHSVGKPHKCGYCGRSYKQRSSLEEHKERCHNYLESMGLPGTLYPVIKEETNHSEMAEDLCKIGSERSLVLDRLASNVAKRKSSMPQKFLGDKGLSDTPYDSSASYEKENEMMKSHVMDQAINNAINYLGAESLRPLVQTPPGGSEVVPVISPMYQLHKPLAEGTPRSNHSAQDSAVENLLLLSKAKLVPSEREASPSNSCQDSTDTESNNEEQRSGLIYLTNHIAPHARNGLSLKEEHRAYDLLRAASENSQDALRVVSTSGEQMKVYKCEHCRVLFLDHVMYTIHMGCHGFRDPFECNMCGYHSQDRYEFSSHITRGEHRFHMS
# Sequence of Ikaros (Q96SW2 whole entry): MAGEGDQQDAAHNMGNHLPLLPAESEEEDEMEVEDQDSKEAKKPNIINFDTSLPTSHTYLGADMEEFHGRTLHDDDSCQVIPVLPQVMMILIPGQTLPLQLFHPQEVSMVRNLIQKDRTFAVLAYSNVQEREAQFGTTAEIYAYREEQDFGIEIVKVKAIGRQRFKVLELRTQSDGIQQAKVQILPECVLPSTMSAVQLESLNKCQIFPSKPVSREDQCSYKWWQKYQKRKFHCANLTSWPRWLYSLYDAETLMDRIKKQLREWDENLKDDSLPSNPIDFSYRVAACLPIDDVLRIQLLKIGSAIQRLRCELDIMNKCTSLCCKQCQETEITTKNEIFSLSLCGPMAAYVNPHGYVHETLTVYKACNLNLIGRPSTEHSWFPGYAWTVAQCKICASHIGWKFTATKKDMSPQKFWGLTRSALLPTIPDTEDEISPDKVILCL
# Sequence of Ikaros (Q16531 whole entry partner): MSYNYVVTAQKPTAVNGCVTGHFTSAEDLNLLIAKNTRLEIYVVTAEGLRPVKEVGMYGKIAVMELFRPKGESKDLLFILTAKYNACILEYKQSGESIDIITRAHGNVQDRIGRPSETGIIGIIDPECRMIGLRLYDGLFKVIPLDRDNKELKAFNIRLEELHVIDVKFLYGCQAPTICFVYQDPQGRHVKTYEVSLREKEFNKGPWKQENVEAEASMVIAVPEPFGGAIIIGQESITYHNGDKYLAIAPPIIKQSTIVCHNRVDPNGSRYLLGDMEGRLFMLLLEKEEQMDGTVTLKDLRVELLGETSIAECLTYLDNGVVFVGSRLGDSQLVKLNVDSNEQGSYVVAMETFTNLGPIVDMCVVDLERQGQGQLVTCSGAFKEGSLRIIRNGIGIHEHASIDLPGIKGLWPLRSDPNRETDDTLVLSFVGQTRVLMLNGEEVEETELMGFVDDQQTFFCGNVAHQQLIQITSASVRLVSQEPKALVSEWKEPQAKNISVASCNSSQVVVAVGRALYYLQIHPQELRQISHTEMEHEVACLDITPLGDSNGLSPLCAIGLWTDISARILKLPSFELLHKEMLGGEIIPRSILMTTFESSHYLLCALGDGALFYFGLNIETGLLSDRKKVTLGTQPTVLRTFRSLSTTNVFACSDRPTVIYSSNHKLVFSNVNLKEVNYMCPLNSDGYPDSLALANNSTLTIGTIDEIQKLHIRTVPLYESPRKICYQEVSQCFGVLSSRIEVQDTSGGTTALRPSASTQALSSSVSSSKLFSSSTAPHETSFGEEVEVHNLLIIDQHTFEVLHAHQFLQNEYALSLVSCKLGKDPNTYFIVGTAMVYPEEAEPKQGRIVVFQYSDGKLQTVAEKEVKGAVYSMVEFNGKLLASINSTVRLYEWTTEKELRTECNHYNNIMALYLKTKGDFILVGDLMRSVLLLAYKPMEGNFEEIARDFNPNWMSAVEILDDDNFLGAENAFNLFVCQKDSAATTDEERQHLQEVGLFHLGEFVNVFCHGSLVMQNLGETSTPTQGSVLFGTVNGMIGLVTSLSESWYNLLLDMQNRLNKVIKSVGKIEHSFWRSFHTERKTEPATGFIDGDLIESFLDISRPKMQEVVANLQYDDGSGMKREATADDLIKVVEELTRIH
# Procedure: as §1
# Sequence of Helios (Q9UKS7 whole entry): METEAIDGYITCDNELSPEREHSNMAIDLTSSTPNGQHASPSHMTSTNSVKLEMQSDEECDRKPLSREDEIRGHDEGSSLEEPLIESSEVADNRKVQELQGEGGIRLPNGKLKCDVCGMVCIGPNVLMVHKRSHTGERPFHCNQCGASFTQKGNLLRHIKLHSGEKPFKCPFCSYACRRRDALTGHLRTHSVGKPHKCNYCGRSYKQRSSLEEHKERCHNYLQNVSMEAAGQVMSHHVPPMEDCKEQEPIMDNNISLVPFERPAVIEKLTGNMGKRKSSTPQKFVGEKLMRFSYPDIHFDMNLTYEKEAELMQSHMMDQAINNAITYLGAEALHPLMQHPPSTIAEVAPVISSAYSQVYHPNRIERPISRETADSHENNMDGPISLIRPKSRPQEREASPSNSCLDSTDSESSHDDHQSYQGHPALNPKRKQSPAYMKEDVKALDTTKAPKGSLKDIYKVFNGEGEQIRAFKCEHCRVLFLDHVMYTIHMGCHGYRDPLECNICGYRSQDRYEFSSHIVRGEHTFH
# Sequence of Helios (Q96SW2 whole entry): as the sequence (Q96SW2 whole entry) above
# Sequence of Helios (Q16531 whole entry partner): as the sequence (Q16531 whole entry partner) above
SMILES,DC50 (Helios),DC50 (Ikaros)
"COc1ccc2nc(-c3ccc4c(c3)CN(C3CCC(=O)NC3=O)C4=O)ccc2c1 (centres unmarked) [Example 29, 3-[5-(6-methoxyquinolin-2-yl)-1-oxo-2,3-dihydro-1H-isoindol-2-yl]piperidine-2,6-dione]",25 nM,> 20 µM
"Nc1nc(-c2ccc3c(c2)CN(C2CCC(=O)NC2=O)C3=O)cc2ncccc12 (centres unmarked) [Example 57, 3-[5-(5-amino-1,6-naphthyridin-7-yl)-1-oxo-2,3-dihydro-1H-isoindol-2-yl]piperidine-2,6-dione]",7 nM,> 20 µM
"O=C1CCC(N2Cc3cc(-c4cc(-c5ccccc5)ccn4)ccc3C2=O)C(=O)N1 (centres unmarked) [Example 74, 3-(1-oxo-5-(4-phenylpyridin-2-yl)isoindolin-2-yl)piperidine-2,6-dione]",32 nM,0.034 µM
"CCCc1cc(N)nc(-c2ccc3c(c2)CN(C2CCC(=O)NC2=O)C3=O)c1C#N (centres unmarked) [Example 173, 6-amino-2-(2-(2,6-dioxopiperidin-3-yl)-1-oxoisoindolin-5-yl)-4-propylnicotinonitrile]",120 nM,≥ 10 µM
"COc1c(C)cc(-c2ccc3c(c2)CN(C2CCC(=O)NC2=O)C3=O)nc1N (centres unmarked) [Example 153, 3-(5-(6-amino-5-methoxy-4-methylpyridin-2-yl)-1-oxoisoindolin-2-yl)piperidine-2,6-dione]",70 nM,≥ 10 µM
"CC(=O)Nc1nc(-c2ccc3c(c2)CN(C2CCC(=O)NC2=O)C3=O)cc2ccccc12 (centres unmarked) [Example 48, N-{3-[2-(2,6-Dioxopiperidin-3-yl)-1-oxo-2,3-dihydro-1H-isoindol-5-yl]isoquinolin-1-yl}acetamide]",90 nM,> 20 µM
"O=C1CCC(N2Cc3cc(-c4ccc5ccccc5n4)ccc3C2=O)C(=O)N1 (centres unmarked) [Example 1, 3-(1-Oxo-5-(quinolin-2-yl)isoindolin-2-yl)piperidine-2,6-dione]",34 nM,> 20 µM
"O=C1CCC(N2Cc3cc(-c4cc5ccccc5cn4)ccc3C2=O)C(=O)N1 (centres unmarked) [Example 67, 3-[5-(isoquinolin-3-yl)-1-oxo-2,3-dihydro-1H-isoindol-2-yl]piperidine-2,6-dione]",42 nM,3 µM
"Nc1nc(-c2ccc3c(c2)CN(C2CCC(=O)NC2=O)C3=O)cc2c1CCCC2 (centres unmarked) [Example 150, 3-(5-(1-amino-5,6,7,8-tetrahydroisoquinolin-3-yl)-1-oxoisoindolin-2-yl)piperidine-2,6-dione]",32 nM,≥ 10 µM
"Nc1nccc(-c2ccc3c(c2)CN(C2CCC(=O)NC2=O)C3=O)n1 (centres unmarked) [Example 70, 3-(5-(2-aminopyrimidin-4-yl)-1-oxoisoindolin-2-yl)piperidine-2,6-dione]",480 nM,> 20 µM
"CN(C)C(=O)c1c(-c2ccc3c(c2)CN(C2CCC(=O)NC2=O)C3=O)nc(N)c2ccccc12 (centres unmarked) [Example 130, 1-amino-3-[2-(2,6-dioxopiperidin-3-yl)-1-oxo-2,3-dihydro-1H-isoindol-5-yl]-N,N-dimethylisoquinoline-4-carboxamide]",450 nM,≥ 20 µM
"Nc1cc2cccnc2c(-c2ccc3c(c2)CN(C2CCC(=O)NC2=O)C3=O)n1 (centres unmarked) [Example 53, 3-[5-(6-Amino-1,7-naphthyridin-8-yl)-1-oxo-2,3-dihydro-1H-isoindol-2-yl]piperidine-2,6-dione]",85 nM,> 20 µM
"O=C1CCC(N2Cc3cc(-c4cc5ccccc5c(=O)[nH]4)ccc3C2=O)C(=O)N1 (centres unmarked) [Example 157, 3-[1-Oxo-5-(1-oxo-1,2-dihydroisoquinolin-3-yl)-2,3-dihydro-1H-isoindol-2-yl]piperidine-2,6-dione]",110 nM,≥ 20 µM
"Nc1ccc(Br)c(-c2ccc3c(c2)CN(C2CCC(=O)NC2=O)C3=O)n1 (centres unmarked) [Example 101, 3-(5-(6-amino-3-bromopyridin-2-yl)-1-oxoisoindolin-2-yl)piperidine-2,6-dione]",470 nM,≥ 20 µM
"Cc1cc(-c2ccc3c(c2)CN(C2CCC(=O)NC2=O)C3=O)nc(N)c1C (centres unmarked) [Example 151, 3-(5-(6-amino-4,5-dimethylpyridin-2-yl)-1-oxoisoindolin-2-yl)piperidine-2,6-dione]",10 nM,≥ 10 µM

# Other lines, results leading:
DC50 (Helios),DC50 (Ikaros),SMILES
26 nM,> 20 µM,"CNc1nc(-c2ccc3c(c2)CN(C2CCC(=O)NC2=O)C3=O)cc2ncccc12 (centres unmarked) [Example 51, 3-{5-[5-(Methylamino)-1,6-naphthyridin-7-yl]-1-oxo-2,3-dihydro-1H-isoindol-2-yl}piperidine-2,6-dione]"
> 20000 nM,> 20 µM,"COC(=O)c1ccc2nc(-c3ccc4c(c3)CN(C3CCC(=O)NC3=O)C4=O)ccc2c1 (centres unmarked) [Example 31, methyl 2-[2-(2,6-dioxopiperidin-3-yl)-1-oxo-2,3-dihydro-1H-isoindol-5-yl]quinoline-6-carboxylate]"
> 20000 nM,> 20 µM,"Cc1cc(=O)c2ccc(-c3ccc4c(c3)CN(C3CCC(=O)NC3=O)C4=O)nc2o1 (centres unmarked) [Example 62, 3-(5-{2-methyl-4-oxo-4H-pyrano[2,3-b]pyridin-7-yl}-1-oxo-2,3-dihydro-1H-isoindol-2-yl)piperidine-2,6-dione]"
30 nM,> 20 µM,"COc1cc2nc(-c3ccc4c(c3)CN(C3CCC(=O)NC3=O)C4=O)nc(N)c2cc1OC (centres unmarked) [Example 16, 3-[5-(4-amino-6,7-dimethoxyquinazolin-2-yl)-1-oxo-2,3-dihydro-1H-isoindol-2-yl]piperidine-2,6-dione]"
≥ 10000 nM,≥ 10 µM,"CC(=O)N1CCN(c2cc(N)nc(-c3ccc4c(c3)CN(C3CCC(=O)NC3=O)C4=O)c2)CC1 (centres unmarked) [Example 186, 3-(5-(4-(4-acetylpiperazin-1-yl)-6-aminopyridin-2-yl)-1-oxoisoindolin-2-yl)piperidine-2,6-dione]"
170 nM,≥ 10 µM,"Cc1ccc(-c2ccc3c(c2)CN(C2CCC(=O)NC2=O)C3=O)nc1N (centres unmarked) [Example 116, 3-(5-(6-amino-5-methylpyridin-2-yl)-1-oxoisoindolin-2-yl)piperidine-2,6-dione]"
90 nM,≥ 20 µM,"Nc1cc(C(F)(F)F)cc(-c2ccc3c(c2)CN(C2CCC(=O)NC2=O)C3=O)n1 (centres unmarked) [Example 163, 3-(5-(6-amino-4-(trifluoromethyl)pyridin-2-yl)-1-oxoisoindolin-2-yl)piperidine-2,6-dione]"
6 nM,0.13 µM,"Cc1ccc2c(-c3ccc4c(c3)CN(C3CCC(=O)NC3=O)C4=O)nccc2c1 (centres unmarked) [Example 23, 3-[5-(6-methylisoquinolin-1-yl)-1-oxo-2,3-dihydro-1H-isoindol-2-yl]piperidine-2,6-dione]"
8 nM,> 20 µM,"Nc1nc(-c2ccc3c(c2)CN(C2CCC(=O)NC2=O)C3=O)nc2ccccc12 (centres unmarked) [Example 22, 3-[5-(4-aminoquinazolin-2-yl)-1-oxo-2,3-dihydro-1H-isoindol-2-yl]piperidine-2,6-dione]"
> 20000 nM,> 20 µM,"O=C1CCC(N2Cc3cc(-c4nccc5cccnc45)ccc3C2=O)C(=O)N1 (centres unmarked) [Example 64, 3-[5-(1,7-naphthyridin-8-yl)-1-oxo-2,3-dihydro-1H-isoindol-2-yl]piperidine-2,6-dione]"
610 nM,≥ 20 µM,"Cc1cc(-c2ccc3c(c2)CN(C2CCC(=O)NC2=O)C3=O)nc(N)n1 (centres unmarked) [Example 143, 3-(5-(2-amino-6-methylpyrimidin-4-yl)-1-oxoisoindolin-2-yl)piperidine-2,6-dione]"
340 nM,≥ 20 µM,"O=C1CCC(N2Cc3cc(-c4nc5ccccc5nc4-c4ccccc4)ccc3C2=O)C(=O)N1 (centres unmarked) [Example 99, 3-(1-oxo-5-(3-phenylquinoxalin-2-yl)isoindolin-2-yl)piperidine-2,6-dione]"
3900 nM,> 20 µM,"NC(=O)c1cnc(-c2ccc3c(c2)CN(C2CCC(=O)NC2=O)C3=O)nc1N (centres unmarked) [Example 81, 4-amino-2-[2-(2,6-dioxopiperidin-3-yl)-1-oxo-2,3-dihydro-1H-isoindol-5-yl]pyrimidine-5-carboxamide]"
> 20000 nM,> 20 µM,"Nc1ccc([N+](=O)[O-])c(-c2ccc3c(c2)CN(C2CCC(=O)NC2=O)C3=O)n1 (centres unmarked) [Example 79, 3-[5-(6-Amino-3-nitropyridin-2-yl)-1-oxo-2,3-dihydro-1H-isoindol-2-yl]piperidine-2,6-dione]"
20 nM,≥ 10 µM,"O=C1CCC(N2Cc3cc(-c4cc5c(ccn5Cc5ccccc5)cn4)ccc3C2=O)C(=O)N1 (centres unmarked) [Example 158, 3-(5-{1-Benzyl-1H-pyrrolo[3,2-c]pyridin-6-yl}-1-oxo-2,3-dihydro-1H-isoindol-2-yl) piperidine-2,6-dione]"
20 nM,0.41 µM,"N#Cc1cnc(-c2ccc3c(c2)CN(C2CCC(=O)NC2=O)C3=O)c2ccccc12 (centres unmarked) [Example 90, -(2-(2,6-dioxopiperidin-3-yl)-1-oxoisoindolin-5-yl)isoquinoline-4-carbonitrile]"
